This is an account of results in paper PMC6412891, “Synthesis and Biological Evaluation of Novel Thiazolyl-Coumarin Derivatives as Potent Histone Deacetylase Inhibitors with Antifibrotic Activity” (Molecules, 2019).

Experiment [1] deals with T1, HDAC1 human recombinant (Homo sapiens, UniProt Q13547).
T1 construct: purchased Enzo Life Science BML-AK511
Nature of the experiment: HDAC1 inhibitory activity, fluorometric kit. The class given is biochemical. The settings on record: Class I.

Experiment [2] concerns histone H4-acetylated in CFs. Nature of the experiment: Histone H4-acetylated expression in cardiac fibroblasts, western blot. The class given is cell-based, rat. The note with it: 5 μM for 8 h, vs. control. The procedure: For this purpose, CFs of neonatal rats were incubated in the presence/absence of the 5a, 6a, 7a and 8a derivatives, and the expression of histone H4–acetylated was measured using the western blot technique.
For the analysis of the protein expression of histone H4–acetylated (ac–H4) and total H4 histone, a number of 1 × 10^6 of CFs seeded in 60 mm plates was used, […] Subsequently, total histones were extracted by the technique of saline precipitation (high salt extraction). Briefly, CFs were scraped from the plates with 1 mL of cold PBS transferring their contents to Eppendorf tubes to be centrifuged for 60 s at 1500 rpm at 4 °C and re–suspended in 400 μL of cold buffer A (10 mM 4-(2-hydroxyethyl)-1-piperazineethanesulfonic acid-KOH (HEPES-KOH) adjusted to pH 7.9, 1.5 mM MgCl2, 10 mM KCl, 0.5 mM dithiothreitol and 0.2 mM phenylmethylsulfonyl fluoride (PMSF). The suspension is left on ice for 10 min and then placed in the vortex for 10 s. The samples were centrifuged for 60 s, subsequently discarding the supernatant fraction. The obtained pellet was re-suspended in 60 μL of cold C buffer (20 mM HEPES-KOH adjusted to pH 7.9, 25% glycerol, 420 mM NaCl, 1.5 mM MgCl2, 0.2 mM EDTA, dithiothreitol 0.5 mM and 0.2 mM PMSF) and placed on ice for 20 min for saline precipitation. Cell debris is removed by centrifugation for 120 s at 1500 rpm at 4 °C and the supernatant fraction, which contains the DNA binding proteins, is stored at minus 20 °C. For the analysis of α–SMA and procollagen type I expression levels, 3×10^5 CFs seeded in 35 mm plates were used, which were incubated together with inhibitor compounds at a 5 μM, in the absence/presence of TGF–β1 (5 ng/mL) for 48 h. To obtain the total proteins, the CFs were washed three times with cold PBS, then scraped and lysed with 50 μL of radio inmuno-precipitation assay (RIPA) lysis buffer (10 mM Tris–HCl pH 7.2, 5 mM EDTA, 150 mM NaCl, Triton X–100 1%, sodium dodecyl sulfate (SDS) 0.1%, deoxycholate 1%, leupeptin 2 μg/mL, aprotinin 10mM, PMSF 1mM and Na3VO4 100μM). The solution was centrifuged for 15 min at 10,000 rpm and at 4 °C. The supernatant fraction containing the total proteins was stored at minus 20 °C. The concentration of proteins obtained was determined by spectrophotometry at 570 nm, using the Bradford method (Bio-Rad, Hercules, CA, USA).
CFs proteins (25 μg), were subjected to 10% sodium dodecyl sulfate-polyacrylamide gel electrophoresis and finally transferred onto a nitrocellulose membrane (Millipore, Billerica, MA, USA). The membrane was washed twice with tris–buffered saline solution containing 0.1% Tween 20 (TBST). […]
Figure 3 CTz non–substituted derivatives inhibit histone H4 acetylation. […] Nuclear extracts were isolated and histone H4 acetylation expression levels were measured by western blot. […]

Experiment [3] has as its system α-SMA expression in CFs. As to the kind of experiment: α-SMA expression levels in cardiac fibroblasts, western blot. The format is cell-based, rat. The settings on record: for α-SMA expression levels: 5 μM for 48 h, absence of TGF-β1, vs. control; for α-SMA expression levels induced by TGF-β1: derivatives 5 μM (TSA 0.1 μM) for 48 h in presence of TGF-β1. The protocol: For this purpose, a fixed concentration of 5a, 6a, 7a and 8a derivatives in the presence/absence of TGF–β1 (a strong inducer of CFs–to–CMFs differentiation), was studied, and α–SMA expression levels were measured by using the western blot technique. TSA was used as a control and also for comparative purposes.
For the analysis of the protein expression of histone H4–acetylated (ac–H4) and total H4 histone, a number of 1 × 10^6 of CFs seeded in 60 mm plates was used, which were incubated with the inhibitory compounds at a concentration of 10 μM, in the absence/presence of TGF–β1(5ng/mL) for 4 h. Subsequently, total histones were extracted by the technique of saline precipitation (high salt extraction). Briefly, CFs were scraped from the plates with 1 mL of cold PBS transferring their contents to Eppendorf tubes to be centrifuged for 60 s at 1500 rpm at 4 °C and re–suspended in 400 μL of cold buffer A (10 mM 4-(2-hydroxyethyl)-1-piperazineethanesulfonic acid-KOH (HEPES-KOH) adjusted to pH 7.9, 1.5 mM MgCl2, 10 mM KCl, 0.5 mM dithiothreitol and 0.2 mM phenylmethylsulfonyl fluoride (PMSF). The suspension is left on ice for 10 min and then placed in the vortex for 10 s. The samples were centrifuged for 60 s, subsequently discarding the supernatant fraction. The obtained pellet was re-suspended in 60 μL of cold C buffer (20 mM HEPES-KOH adjusted to pH 7.9, 25% glycerol, 420 mM NaCl, 1.5 mM MgCl2, 0.2 mM EDTA, dithiothreitol 0.5 mM and 0.2 mM PMSF) and placed on ice for 20 min for saline precipitation. Cell debris is removed by centrifugation for 120 s at 1500 rpm at 4 °C and the supernatant fraction, which contains the DNA binding proteins, is stored at minus 20 °C. For the analysis of α–SMA and procollagen type I expression levels, 3×10^5 CFs seeded in 35 mm plates were used, which were incubated together with inhibitor compounds at a 5 μM, in the absence/presence of TGF–β1 (5 ng/mL) for 48 h. To obtain the total proteins, the CFs were washed three times with cold PBS, then scraped and lysed with 50 μL of radio inmuno-precipitation assay (RIPA) lysis buffer (10 mM Tris–HCl pH 7.2, 5 mM EDTA, 150 mM NaCl, Triton X–100 1%, sodium dodecyl sulfate (SDS) 0.1%, deoxycholate 1%, leupeptin 2 μg/mL, aprotinin 10mM, PMSF 1mM and Na3VO4 100μM). The solution was centrifuged for 15 min at 10,000 rpm and at 4 °C. The supernatant fraction containing the total proteins was stored at minus 20 °C. The concentration of proteins obtained was determined by spectrophotometry at 570 nm, using the Bradford method (Bio-Rad, Hercules, CA, USA).
CFs proteins (25 μg), were subjected to 10% sodium dodecyl sulfate-polyacrylamide gel electrophoresis and finally transferred onto a nitrocellulose membrane (Millipore, Billerica, MA, USA). The membrane was washed twice with tris–buffered saline solution containing 0.1% Tween 20 (TBST). After being blocked with TBST containing 5% nonfat milk for 40 min, the membrane was incubated with primary antibodies in TBST/1% nonfat milk at 4 °C overnight. The membrane was washed three times with TBST for a total of 15 min and then incubated with primary antibodies (ac–H4, H4 total, α-SMA, procollagen type I and GAPDH). Then the membrane was incubated with goat anti–rabbit or anti-mouse IgG antibodies conjugated with horseradish (diluted 1:1000) for 1 h at room temperature. Signals were developed with ECL reagents and exposure to photographic film.
Figure 4 CTz non–substituted inhibit α-SMA expression in cardiac fibroblasts. (A) CFs were exposed to 5a, 6a, 7a and 8a at 5 μM for 48 h. […] (B) CFs were exposed to 5a, 6a, 7a and 8a at 5 μM for 48 h in presence of TGF–β1 ([…]). α-SMA expression levels were measured by western blot. GAPDH was used as control load.
Background: In western blotting, separated proteins are transferred to a membrane and probed.

Structures are written as SMILES.

T1 sequence (Q13547 whole entry): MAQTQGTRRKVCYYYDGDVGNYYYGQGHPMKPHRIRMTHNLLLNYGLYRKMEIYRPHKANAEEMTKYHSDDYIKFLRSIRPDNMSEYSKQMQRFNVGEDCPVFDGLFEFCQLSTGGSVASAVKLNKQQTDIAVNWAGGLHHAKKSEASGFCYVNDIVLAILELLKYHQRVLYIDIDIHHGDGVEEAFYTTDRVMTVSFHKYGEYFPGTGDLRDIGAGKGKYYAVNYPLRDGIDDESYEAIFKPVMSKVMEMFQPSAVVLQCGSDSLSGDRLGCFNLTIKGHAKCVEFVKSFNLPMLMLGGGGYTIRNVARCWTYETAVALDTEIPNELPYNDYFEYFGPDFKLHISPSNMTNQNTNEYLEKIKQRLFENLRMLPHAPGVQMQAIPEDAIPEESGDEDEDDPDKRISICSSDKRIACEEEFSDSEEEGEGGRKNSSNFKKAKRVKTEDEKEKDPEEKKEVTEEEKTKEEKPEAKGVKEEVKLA

In general, IC50 refers to the concentration that inhibits the measured activity by half. Turning to `O=C(Nc1nc(-c2cc3ccccc3oc2=O)cs1)c1ccc(O)c(O)c1` [Compound 6a], the IC50 in experiment [1] was found to be 423 ± 30.2 nM. In addition, the “histone H4-acetylated expression” value in experiment [2] is “increase in a statistically significant manner”. Besides, in experiment [3], the α-SMA expression levels entry was “decreased in a statistically significant manner” and the “α-SMA expression levels induced by TGF-β1” value was “decrease close to control levels”.
Consider `O=C(O)CCCCC(=O)Nc1nc(-c2cc3ccccc3oc2=O)cs1` [Compound 7a], for which, in experiment [1], the IC50 was 7690 ± 328 nM. Further, the “histone H4-acetylated expression” value in experiment [2] is given as “had no effect”. Further, in experiment [3], the α-SMA expression levels result was “had no effect”.
For the compound `O=C(CCCCC1CCSS1)Nc1nc(-c2cc3ccccc3oc2=O)cs1` (stereo not drawn) [Compound 5a, 5-[1,2]-Dithiolan-3-yl-N-[4-(2-oxo-2H-chromen-3-yl)-thiazol-2-yl]-pentanamide], the IC50 in experiment [1] amounted to 60.4 ± 1.7 nM. Besides, the “histone H4-acetylated expression” value in experiment [2] was “increase in a statistically significant manner”. Besides, in experiment [3], the α-SMA expression levels entry is reported as “decreased in a statistically significant manner” and the “α-SMA expression levels induced by TGF-β1” value is “decrease close to control levels”.
As to `O=C(CCCCC(=O)Nc1nc(-c2cc3ccccc3oc2=O)cs1)NO` [Compound 8a, 5-[4-(2-Oxo-2H-chromen-3-yl)-thiazol-2-yl-carbamoyl]-N-hydroxypentanamide], in experiment [1], the IC50 came out at 50.6 ± 2.1 nM. The “histone H4-acetylated expression” value in experiment [2] is “increase in a statistically significant manner”. In experiment [3], the α-SMA expression levels entry is “decreased in a statistically significant manner” and the “α-SMA expression levels induced by TGF-β1” value is listed as “decrease close to control levels”.
